# Patent US20250163113A1, “PEPTIDES TARGETING THE INTERACTION BETWEEN KINDLIN-1 AND Beta-INTEGRIN” (INSTITUT CURIE, priority 2022, published 2025)
# Residues, ends and D or L forms follow the SMILES beside them.
# Assays:
# [1] = tested on: triple negative breast cancer PDX; assay: Triple negative breast cancer patient derived xenograft (PDX) model; assay type: in vivo; settings: nude mice, 10 mg/Kg intraperitoneal 5 days per week
# Experimental: FIG. 6: Kindpep1 reduces the metastatic spread in a breast cancer PDX model. A. Diagram presenting the course of the experiment. B Quantification of the number of metastatic nodules found in the lungs of control and Kindpep1 treated mice. Mean±SEM are represented. Statistical analyses were performed by a t-test.
# The triple negative breast cancer PDX model expressing high levels of Kindlin-1 was obtained from the Laboratoire d'Investigation Pré-clinique. Informed consent was obtained from patient before xenograft establishment. When tumor reached a volume of 60 to 200 mm^3, mice were randomly assigned to the control or treated group. Kindpep1 was administrated by intraperitoneal injection at a dose of 10 mg/kg 5 times a week. The vehicle alone (Nacl 0.9%) was administered to the control group following the same treatment regimen as with the drug. The control and treated group consisted of 10 mice each.
# Then, a triple negative breast cancer patient derived xenograft (PDX) model previously characterized as highly metastatic and presenting high expression levels of Kindlin-1 was chosen. Tumor fragments were grafted into the interscapular fat pad of female nude immunodeficient mice and 5 days later the treatment started. […] The treatment was administered by intraperitoneal injections 5 days per week and tumor growth was monitored until reaching the ethical size, i.e. 2 cm^3 (FIG. 6A). […]
# [2] = tested on: H358 lung cancer cell line; assay: NCI-H358 KRAS-dependent lung cancer xenograft mouse model; assay type: in vivo; settings: 10 mg/Kg intraperitoneal 5 days per week
# Experimental: FIG. 9: Kindpep decreases tumor growth of KRAS-dependent tumors in vivo. A. Diagram presenting the course of the experiment. B. Scatter plot showing the tumor volume of the different mice of the control and Kindpep1 treated groups, at the end of the treatment. Mean±SD are represented (*p<0.05). C. Graph monitoring tumor growth of control and Kindpep1 treated mice during the course of the experiment. Mean±SD are represented.
# NCI-H358 model: 1×10^5 cells were injected subcutaneously in the flanks of 6-week old female BALB/c mice (n=10 mice for each control and treated groups). Tumor volume was measured with caliper 3 times a week. […] Tumor volumes were calculated as: Volume (cm^3)=a×b^2/2 (a and b are the two registered perpendicular diameters a>b). Tumor growth inhibition (TGI) was calculated using the following formula [1−(Vft−V0t)/(Vfc−V0c))]*100 where Vft=final volume of the treated group (at the end of the treatment); Vot=initial volume of the treatment group (at the beginning of the treatment); Vfc=final volume of the control group (at the end of the treatment); V0c=initial volume of the control group (at the beginning of the treatment).
# Finally, inventors wanted to validate in vivo the impact of Kindpep1 treatment in KRAS-dependent tumors. […] The treatment was administered by intraperitoneal injections 5 days per week and tumor growth was monitored for 50 days (FIG. 9A).
# 4T1-luc cells = assay: 4T1-luc metastatic breast cancer model in BALB/c mice; assay type: in vivo; settings: BALB/c mice, 2, 10 or 50 mg/kg, 7 day per week during 10 days
# Source text: FIG. 5: Kindpep1 reduces tumor growth and metastatic spread in breast cancer in vivo. A. Diagram presenting the course of the experiment. B. Corresponding relative tumor growth graph to bioluminescence images of tumors at day 25. C. Corresponding graph showing the quantification of the total area of metastatic nodules found in the different groups of mice to bioluminescence images of metastasis at day 25. Area ph/s/group stands for area photon/second/group.
# 4T1-luc model: 1×10^5 4T1-luc cells were inoculated subcutaneously in the flanks of 6-week old female BALB/c mice (n=28). Eleven days after tumor cell inoculation, […] mice were randomly assigned to receive intraperitoneal injection of Kindpep1 (2, 10 or 50 mg/kg) or placebo (PBS). The tumor growth and the progression of metastatic lesions were also weekly monitored by bioluminescence imaging of animals using the Nightowl imaging system. On day 25 after tumor cell inoculation, anesthetized mice were sacrificed by cervical dislocation.
# These observations prompted the investigation of the effects of Kindpep1 in vivo. […] Thus, the effects of Kindpep1 on tumor dissemination in a metastatic breast cancer model was studied. 4T1 cells were used because they have a high Kindlin-1 expression and have been also described to form lung metastasis in vivo. […]
# β1-integrin = target: T1, β1-integrin (Homo sapiens, UniProt P05556); assay: Flow cytometry of cell-surface active β1-integrin (9EG7) in MDA MB 231 cells; assay type: cell-based; settings: MDA MB 231, 2 mM MnCl2, positive control
# T1 construct: endogenous in cells; host or cells: MDA MB 231 human breast cancer cells
# Experimental: FIG. 3: Kindpep1 reduces β1-integrin activation. Fluorescence activated sorter (FACS) histograms (top) and the corresponding bar graphs showing the mean fluorescence intensity (MFI) of cell-surface active β-1 integrin (9EG7 staining) of MDA MB 231 cells untreated, treated with Kindpep1 (200 μM) for 15 h or treated with 2 mM MnCl2.
# To quantify the expression levels of integrins, cultured cells were trypsinized, washed and incubated for 1 h at 4° C. in phosphate-buffered saline (PBS) containing 150 mM NaCl and 1% BSA with the rat anti-1 integrin (9EG7 clone, 1:300) primary antibodies obtained from BD Biosciences. Cells were then washed 3 times, incubated with Alexa Fluor 488-conjugated secondary antibody for 1 h at 4° C. and washed. 1×10^4 cells were analyzed on a FACS Calibur. The mean fluorescence intensity of each sample was obtained using the Flowing software 2.
# The effect of Kindpep1 on β1-integrin activation was confirmed by performing the same immunofluorescence assays using the human breast cancer cell line MDA MB 231, characterized by a high Kindlin-1 protein endogeneous expression.
# [3] = target: β1-integrin of 168FARN mouse breast cancer cells (endogenous) (mouse) (UniProt P09055); assay: cell-based or functional assay
# Sequence of β1-integrin of 168FARN mouse breast cancer cells (endogenous) (mouse) (P09055 21-798): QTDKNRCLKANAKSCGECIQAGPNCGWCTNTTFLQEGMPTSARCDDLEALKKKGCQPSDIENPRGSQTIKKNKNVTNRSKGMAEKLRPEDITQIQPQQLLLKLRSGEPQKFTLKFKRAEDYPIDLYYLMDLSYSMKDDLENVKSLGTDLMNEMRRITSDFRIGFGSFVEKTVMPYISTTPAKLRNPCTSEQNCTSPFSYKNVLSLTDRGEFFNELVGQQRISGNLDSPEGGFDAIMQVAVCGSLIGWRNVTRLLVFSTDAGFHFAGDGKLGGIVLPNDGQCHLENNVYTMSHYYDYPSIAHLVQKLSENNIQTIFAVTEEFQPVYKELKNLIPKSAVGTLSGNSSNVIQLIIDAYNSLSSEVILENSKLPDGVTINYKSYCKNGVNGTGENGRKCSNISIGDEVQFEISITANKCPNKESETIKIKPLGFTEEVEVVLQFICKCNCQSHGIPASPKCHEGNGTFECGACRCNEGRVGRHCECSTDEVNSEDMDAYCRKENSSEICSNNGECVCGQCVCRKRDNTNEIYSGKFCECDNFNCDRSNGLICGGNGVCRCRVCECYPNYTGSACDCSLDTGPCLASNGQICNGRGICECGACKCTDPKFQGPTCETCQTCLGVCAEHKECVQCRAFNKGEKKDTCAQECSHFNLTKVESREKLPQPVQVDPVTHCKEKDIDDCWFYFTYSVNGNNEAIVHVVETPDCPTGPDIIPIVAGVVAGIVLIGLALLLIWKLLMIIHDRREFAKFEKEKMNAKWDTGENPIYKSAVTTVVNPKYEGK
# T1 sequence (P05556 21-798): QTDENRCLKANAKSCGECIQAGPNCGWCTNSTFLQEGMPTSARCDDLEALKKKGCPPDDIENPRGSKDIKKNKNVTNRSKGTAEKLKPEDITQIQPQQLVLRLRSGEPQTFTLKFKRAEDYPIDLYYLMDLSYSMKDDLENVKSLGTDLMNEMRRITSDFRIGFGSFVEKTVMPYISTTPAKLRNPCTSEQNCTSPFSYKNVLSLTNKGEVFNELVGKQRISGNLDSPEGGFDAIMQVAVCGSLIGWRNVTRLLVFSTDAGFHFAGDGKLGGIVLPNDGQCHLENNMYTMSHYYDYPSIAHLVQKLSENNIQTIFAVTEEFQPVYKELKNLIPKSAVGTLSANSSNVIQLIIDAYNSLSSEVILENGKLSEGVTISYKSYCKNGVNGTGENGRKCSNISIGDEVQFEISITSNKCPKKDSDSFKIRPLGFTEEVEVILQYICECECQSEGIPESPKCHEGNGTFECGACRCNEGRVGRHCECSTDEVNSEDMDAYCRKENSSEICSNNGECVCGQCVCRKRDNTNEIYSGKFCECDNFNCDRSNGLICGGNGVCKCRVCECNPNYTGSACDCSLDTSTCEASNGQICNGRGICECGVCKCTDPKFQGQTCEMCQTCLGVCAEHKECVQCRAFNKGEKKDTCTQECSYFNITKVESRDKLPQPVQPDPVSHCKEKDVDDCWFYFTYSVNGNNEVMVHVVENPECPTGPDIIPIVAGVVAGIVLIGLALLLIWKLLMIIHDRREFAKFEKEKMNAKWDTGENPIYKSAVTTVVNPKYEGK
compound,measurement,setting,value
CC[C@H](C)[C@H](NC(=O)[C@H](CCCCN)NC(=O)[C@H](CCCCN)NC(=O)[C@H](CCCCN)NC(=O)[C@H](CCCCN)NC(=O)[C@@H](N)C(C)C)C(=O)N[C@@H](CCCCN)C(=O)N[C@@H](C)C(=O)N[C@@H](CCC(=O)O)C(=O)N[C@H](C(=O)N[C@@H](CCCCN)C(=O)N[C@H](C(=O)N[C@@H](CO)C(=O)N[C@@H](Cc1ccccc1)C(=O)N[C@@H](CC(C)C)C(=O)N[C@@H](CCCNC(=N)N)C(=O)N[C@@H](CCSC)C(=O)N[C@@H](CCCCN)C(=O)N[C@@H](CC(N)=O)C(=O)N[C@@H](CCCNC(=N)N)C(=O)N[C@@H](CC(N)=O)C(=O)N[C@@H](CO)C(=O)N[C@@H](C)C(=O)N[C@@H](CO)C(=O)N[C@@H](CCC(N)=O)C(=O)N[C@H](C(=O)N[C@@H](C)C(=O)N[C@@H](CO)C(=O)N[C@@H](CO)C(=O)N[C@@H](CC(C)C)C(=O)O)C(C)C)[C@@H](C)CC)[C@@H](C)CC [Kindpep1] (H-VKKKKIKAEIKISFLRMKNRNSASQVASSL-OH),death during the treatment,[1],no death was observed
same,side effects,[1],no side effects were detected
same,toxicities in nude mice,[2],without apparent toxicities
same,death during the treatment,4T1-luc cells,no death was observed
same,side effects,4T1-luc cells,no any side effects was detected
[Cl][Mn][Cl] [MnCl2],"levels of active β1-integrin on the cell surface (flow cytometry, 9EG7)",β1-integrin,increase levels of active β1-integrin
wild-type Kindlin-1 expressed in 168FARN cells (from UniProt Q9BQL6 1-677),velocity of cell migration of 168FARN cells in 3D collagen matrix (time-lapse tracking),[3],3.8 fold
